Results from paper PMC9714921 (PLOS Pathogens, 2022).
Where “and” joins values, the source holds several entries; their conditions need not be identical. Identical values can stand only once.

Experiments:
Asu-ACR-16 = Asu-ACR-16 (Ascaris suum, UniProt F1KYJ9); assay: cell-based; type: cell-based
Experimental: (§1) cRNA for oocyte injection was prepared with the mMESSAGE mMACHINE T7 kit following manufacturers protocol (Ambion, USA). Concentration was determined using a Nanodrop spectrophotometer. Desired subunit combinations with associated accessory proteins were mixed and diluted with nuclease-free water to a final concentration of 250 ng/uL for each construct.
(§2) Adult female X. laevis oocyte extraction was performed in accordance with the McGill University Animal Use Protocol 2015–7758 following standard protocol. Briefly, frog ovary lobes were placed in a Ca^2+-free OR2 solution (82 mM NaCl, 2 mM KCl, 1 mM MgCl2, 5 mM HEPES buffer, pH 7.3) and manually divided into clusters of <10 oocytes with thin tweezers followed by a 90-minute incubation in 10 mg/mL collagenase type II (Sigma-Aldrich, USA). Oocytes were washed in Ca^2+-free OR2 and placed ND96 solution (NaCl 96 mM, KCl 2 mM, CaCl2 1.8 mM, MgCl2 1 mM and HEPES 5 mM, pH 7.3) supplemented with sodium pyruvate 2.5 mM [86] and incubated at 18°C until cRNA injection. Oocytes were injected with 50 nL (12.5 ng of each injected gene) of the desired cRNA subunit and accessory protein combination mix with the NanojectII (Drummond Scientific, USA). Following injection, oocytes were incubated in ND96 buffer at 18°C until electrophysiology. All electrophysiology was conducted two days post-injection, except for the expression analysis assay in which oocytes were measured every day after injection for three consecutive days.
(§3) All drugs were dissolved in recording solution (NaCl 100 mM, KCl 2.5 mM, CaCl2 1 mM, HEPES 5 mM, pH 7.3) to a stock concentration of 10 mM and diluted to their final recording concentrations. Oxantel and bephenium were first dissolved in DMSO to ensure a final recording concentration contained less than 0.1% DMSO. For agonist profiling, all drugs were diluted to a concentration of 100 μM.
(§4) Oocytes were placed individually in an RC3Z chamber (Harvard Apparatus, USA) submerged in recording solution (NaCl 100 mM, KCl 2.5 mM, CaCl2 1 mM, HEPES 5 mM, pH 7.3). The RC3Z chamber was connected to a perfusion system containing recording solution and ligand solutions. Pulled glass capillaries (World Precision Instruments, USA) were filled with 3M KCl and the tips clipped and checked for appropriate resistance (between 0.5 and 5 MΩ). A 3M KCl agar bridge grounded the oocyte bath chamber. Measurements were made using an Axon Axoclamp 900A amplifier with Digidata1550M. […] Ligand solutions were applied to the oocytes with an approximate flow rate of 1.2 m/s and current responses measured. Oocytes were exposed to the ligand solution until a distinct current peak was observed followed by a wash with the recording solution until current returned to baseline for a minimum of 10 seconds until the next ligand exposure. For BAPTA-AM exposed oocytes, oocytes were incubated in 100 μM BAPTA-AM for four hours prior to electrophysiology recording. Data was analyzed using Clampex 9.2 (Axon Instruments, USA) and statistical analysis and graphs produced in Prism (GraphPad version 9.1). T-tests were used to compare responses with error bars representing standard error. For concentration-response curves, individual oocyte current response to the different ligand concentrations were normalized to the response obtained with 300 μM. Data was fit using the Graphpad “log(agonist) vs normalized response–variable slope” equation, with 95% confidence intervals being reported. […] For examples of oocyte responses, recordings were filtered in Clampfit using the lowband pass at 40 Hz cutoff.

Dme-ACR-16 = Dme-ACR-16 (Dracunculus medinensis, UniProt A0A0N4U0T6); assay: cell-based; type: cell-based
Chain of Dme-ACR-16 (A0A0N4U0T6 entry or part of it): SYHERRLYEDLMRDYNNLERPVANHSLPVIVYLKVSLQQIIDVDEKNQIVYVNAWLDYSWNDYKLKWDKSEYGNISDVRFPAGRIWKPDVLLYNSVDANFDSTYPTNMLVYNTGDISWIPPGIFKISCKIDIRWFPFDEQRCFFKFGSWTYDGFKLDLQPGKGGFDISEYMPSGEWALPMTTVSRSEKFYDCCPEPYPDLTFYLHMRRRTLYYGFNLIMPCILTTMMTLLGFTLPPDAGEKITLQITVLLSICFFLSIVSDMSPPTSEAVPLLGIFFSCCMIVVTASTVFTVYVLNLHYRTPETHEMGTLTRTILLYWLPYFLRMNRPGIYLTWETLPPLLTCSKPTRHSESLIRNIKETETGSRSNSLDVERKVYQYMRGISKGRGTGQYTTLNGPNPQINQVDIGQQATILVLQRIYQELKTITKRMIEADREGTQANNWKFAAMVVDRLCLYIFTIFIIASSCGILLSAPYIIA
Experimental: as §1, §2, §3, §4

Tzc-ACR-16 = Tzc-ACR-16 (Thelazia callipaeda, UniProt A0A158RD20); assay: cell-based; type: cell-based
Chain of Tzc-ACR-16 (A0A158RD20 entry or part of it): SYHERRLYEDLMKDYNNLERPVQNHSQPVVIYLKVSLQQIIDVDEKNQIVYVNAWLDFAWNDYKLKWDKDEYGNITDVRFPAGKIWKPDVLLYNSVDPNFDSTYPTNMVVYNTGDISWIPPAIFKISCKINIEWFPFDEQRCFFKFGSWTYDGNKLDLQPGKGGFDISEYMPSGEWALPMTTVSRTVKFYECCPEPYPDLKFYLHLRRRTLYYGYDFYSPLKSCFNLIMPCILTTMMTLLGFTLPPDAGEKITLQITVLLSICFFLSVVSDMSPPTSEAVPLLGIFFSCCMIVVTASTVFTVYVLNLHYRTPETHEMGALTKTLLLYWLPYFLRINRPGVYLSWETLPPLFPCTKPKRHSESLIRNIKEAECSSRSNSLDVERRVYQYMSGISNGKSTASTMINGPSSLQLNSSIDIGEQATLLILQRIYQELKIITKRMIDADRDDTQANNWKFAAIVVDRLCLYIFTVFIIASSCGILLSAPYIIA
Experimental: as §1, §2, §3, §4

P. equorum N-AChR = settings: read-out: EC50 μM ACh; accessory protein Ric-3; ref [40]; cited from earlier work
[1] = No accessory protein, listed as acetylcholine
[2] = co-injected: Bma-ric-3 (reference condition)
[3] = co-injected: Bma-ric-3 (reference condition), listed as acetylcholine
[4] = co-injected: Bma-ric-3 + Bma-eat-18
[5] = co-injected: Bma-ric-3 + Bma-molo-1
[6] = co-injected: Bma-ric-3 + Bma-unc-50 + Bma-unc-74
[7] = co-injected: Bma-ric-3 + Bma-unc-50 + Bma-unc-74 + Bma-eat-18
[8] = co-injected: Bma-ric-3 + Cel-emc-6
[9] = co-injected: Bma-ric-3 + Cel-nra-2 + Cel-nra-4
[10] = co-injected: Hco-ric-3, listed as acetylcholine

Chain of Asu-ACR-16 (F1KYJ9 entry or part of it): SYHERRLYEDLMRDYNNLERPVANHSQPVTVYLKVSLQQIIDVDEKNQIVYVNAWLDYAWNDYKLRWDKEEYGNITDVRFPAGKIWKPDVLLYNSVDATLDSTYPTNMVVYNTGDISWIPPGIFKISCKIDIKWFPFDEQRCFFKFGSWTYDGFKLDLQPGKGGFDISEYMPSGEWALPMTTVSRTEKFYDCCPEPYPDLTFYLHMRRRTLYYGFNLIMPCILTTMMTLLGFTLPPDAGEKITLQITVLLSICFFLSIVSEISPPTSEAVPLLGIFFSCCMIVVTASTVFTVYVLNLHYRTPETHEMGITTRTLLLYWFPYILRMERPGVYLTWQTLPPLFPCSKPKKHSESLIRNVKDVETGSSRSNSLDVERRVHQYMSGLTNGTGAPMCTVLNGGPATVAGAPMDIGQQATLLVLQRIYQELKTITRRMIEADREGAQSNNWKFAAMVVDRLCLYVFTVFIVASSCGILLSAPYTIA

CC(=O)OCC[N+](C)(C)C [ACh, acetylcholine]
response to 100 μM acetylcholine normalized to Day 3 response (Asu-ACR-16; Day 1 post-injection): 44 ± 5% | response to 100 μM acetylcholine normalized to Day 3 response (Asu-ACR-16; Day 2 post-injection): 88 ± 5% | current response to 100 μM acetylcholine (Asu-ACR-16; No accessory protein): 24 ± 10 nA | current response to 100 μM acetylcholine (Asu-ACR-16; [1]): 24 ± 10 (n=11) nA | current response to 100 μM acetylcholine (Asu-ACR-16; [2]): 2023 ± 68 nA | current response to 100 μM acetylcholine (Asu-ACR-16; [3]): 2023 ± 68 (n=11) nA | current response to 100 μM acetylcholine (Asu-ACR-16; [4]): 3152 ± 102 (n=13) nA | current response to 100 μM acetylcholine (Asu-ACR-16; [5]): 1425 ± 55 (n=15) nA | current response to 100 μM acetylcholine (Asu-ACR-16; [6]): 2606 ± 183 (n=10) nA | current response to 100 μM acetylcholine (Asu-ACR-16; [7]): 2166 ± 87 (n=12) ns nA | current response to 100 μM acetylcholine (Asu-ACR-16; [8]): 2582 ± 89 (n=12) nA | current response to 100 μM acetylcholine (Asu-ACR-16; [9]): 2849 ± 152 (n=14) nA | current response to 100 μM acetylcholine (Asu-ACR-16; co-injected: Hco-ric-3): 2000–2200 nA and 2052 ± 70 nA | current response to 100 μM acetylcholine (Asu-ACR-16; [10]): 2052 ± 66 nA and 2052 ± 66 (n=13) ns nA | EC50 (Dme-ACR-16): 12.8 µM | response to 100 μM acetylcholine normalized to Day 3 response (Dme-ACR-16; Day 1 post-injection): 49 ± 7% | response to 100 μM acetylcholine normalized to Day 3 response (Dme-ACR-16; Day 2 post-injection): 102 ± 7% | current response to 100 μM acetylcholine (Dme-ACR-16; No accessory protein): 1290 ± 70 nA | current response to 100 μM acetylcholine (Dme-ACR-16; [1]): 1290 ± 70 (n=17) nA | current response to 100 μM acetylcholine (Dme-ACR-16; [4]): 2649 ± 112 (n=11) ns nA | current response to 100 μM acetylcholine (Dme-ACR-16; [5]): 2354 ± 108 (n=13) ns nA | current response to 100 μM acetylcholine (Dme-ACR-16; [6]): 2368 ± 105 (n=13) ns nA | current response to 100 μM acetylcholine (Dme-ACR-16; [7]): 2222 ± 62 (n=15) ns nA | current response to 100 μM acetylcholine (Dme-ACR-16; [8]): 2183 ± 87 (n=11) ns nA | current response to 100 μM acetylcholine (Dme-ACR-16; [9]): 2425 ± 133 (n=12) ns nA | current response to 100 μM acetylcholine (Dme-ACR-16; co-injected: Hco-ric-3): 2000–2200 nA | current response to 100 μM acetylcholine (Dme-ACR-16; [10]): 2150 ± 59 nA and 2150 ± 59 (n=15) ns nA | EC50 (Tzc-ACR-16): 17.4 µM | response to 100 μM acetylcholine normalized to Day 3 response (Tzc-ACR-16; Day 1 post-injection): 7 ± 1% | response to 100 μM acetylcholine normalized to Day 3 response (Tzc-ACR-16; Day 2 post-injection): 47 ± 12% | current response to 100 μM acetylcholine (Tzc-ACR-16; No accessory protein): 0 ± 0 nA | current response to 100 μM acetylcholine (Tzc-ACR-16; [1]): 0 ± 0 (n=15) nA | current response to 100 μM acetylcholine (Tzc-ACR-16; [2]): 818 ± 112 nA | current response to 100 μM acetylcholine (Tzc-ACR-16; [3]): 818 ± 112 (n=13) nA | current response to 100 μM acetylcholine (Tzc-ACR-16; [4]): 791 ± 119 (n=8) ns nA | current response to 100 μM acetylcholine (Tzc-ACR-16; [5]): 660 ± 76 (n=15) ns nA | current response to 100 μM acetylcholine (Tzc-ACR-16; [6]): 367 ± 43 nA | current response to 100 μM acetylcholine (Tzc-ACR-16; [7]): 964 ± 101 (n=15) ns nA | current response to 100 μM acetylcholine (Tzc-ACR-16; co-injected: Bma-ric-3 + Bma-unc-50 + Bma-unc-74, listed as acetylcholine): 367 ± 43 (n=15) nA | current response to 100 μM acetylcholine (Tzc-ACR-16; [8]): 720 ± 70 (n=13) ns nA | current response to 100 μM acetylcholine (Tzc-ACR-16; [9]): 1263 ± 88 nA | current response to 100 μM acetylcholine (Tzc-ACR-16; co-injected: Bma-ric-3 + Cel-nra-2 + Cel-nra-4, listed as acetylcholine): 1263 ± 88 (n=15) nA | current response to 100 μM acetylcholine (Tzc-ACR-16; co-injected: Hco-ric-3): 400–600 nA | current response to 100 μM acetylcholine (Tzc-ACR-16; [10]): 563 ± 39 nA and 563 ± 39 (n=13) nA | EC50 (P. equorum N-AChR): 6.4 ± 0.6 µM
